Experimental data from patent US20210046139A1, “VEGETATION WATERS AND USES THEREOF” (FATTORIA LA VIALLA DI GIANNI, ANTONIO E BANDINO LO FRANCO - …, priority 2018, published 2021).

Tests used:
[1] = system: STZ diabetic rats; assay: Thiobarbituric acid reactive substances (TBARS) in plasma and kidney; assay type: in vivo, Sprague-Dawley rats; settings: 50 mg/kg/day, 5 weeks, mean ± S.E.
From the text: A well-established model of streptozotocin (STZ)-induced diabetes in rats was used. Streptozotocin is a glucosamine derivative of nitrosurea which selectively destroys the β cells of the pancreatic islets and causes the development of diabetes with hyperglycemia and glycosuria. The model shares a series of characteristics with human diabetic complications at both a functional level and a biochemical level, such as, for example, a reduced nervous conduction, loss of small-diameter sensory nerve fibers in the skin, reduction in Na+ and K+-ATPase activity and early alterations of the thermal and mechanical nociceptive thresholds. In this study, diabetes was induced in 24 rats with a single intraperitoneal injection of 60 mg/kg of STZ dissolved in a sodium citrate buffer (pH 4.5). 24 rats injected only with the vehicle were used as non-diabetic controls. Hyperglycemia was confirmed by measuring glycosuria 72 hours after the injection of STZ using Keto-Diabur strips (KD-5000; Roche Diagnostics Spa, Italy). Only the animals with glycosuria >5% were classified as diabetic and included in the study. […] The levels of TBARS were determined as an indicator of the production of reactive oxygen species. […] The upper phase was measured using fluorimetry, (Infinite M200; Tecan, Milan, Italy) at an excitation wavelength of 532 nm and emission wavelength of 553 nm. […]

[2] = system: STZ diabetic rats; assay: Eye examination and cataract classification; assay type: in vivo, Sprague-Dawley rats
From the text: A well-established model of streptozotocin (STZ)-induced diabetes in rats was used. Streptozotocin is a glucosamine derivative of nitrosurea which selectively destroys the β cells of the pancreatic islets and causes the development of diabetes with hyperglycemia and glycosuria. The model shares a series of characteristics with human diabetic complications at both a functional level and a biochemical level, such as, for example, a reduced nervous conduction, loss of small-diameter sensory nerve fibers in the skin, reduction in Na+ and K+-ATPase activity and early alterations of the thermal and mechanical nociceptive thresholds. In this study, diabetes was induced in 24 rats with a single intraperitoneal injection of 60 mg/kg of STZ dissolved in a sodium citrate buffer (pH 4.5). 24 rats injected only with the vehicle were used as non-diabetic controls. Hyperglycemia was confirmed by measuring glycosuria 72 hours after the injection of STZ using Keto-Diabur strips (KD-5000; Roche Diagnostics Spa, Italy). Only the animals with glycosuria >5% were classified as diabetic and included in the study. […] The animals were then randomized to receive the concentrate of the invention at an HT equivalent dose of 50 mg/kg/day or 50 mg/kg/day of pure HT in drinking water, according to the following treatment groups: The opacity of the eyes and of the crystalline lenses was examined every week starting from the seventh/eighth week after the induction of diabetes, the period in which, in the STZ diabetic model, cataracts manifest themselves. Cataract severity was classified using a validated semi-quantitative scale. In particular, the following assessment scheme and the following scores were used: [table] The opacity index was calculated to quantitatively assess the degree of opacity of the crystalline lens by means of the following formula: [formula]

Q: Which results are given for `OCCc1ccc(O)c(O)c1` [HT, hydroxytyrosol]?
A: PLASMA TBARS ([1]; STZ diabetic rats): 12.1 ± 1.2 nmol/mL; PLASMA TBARS ([1]; non-diabetic control rats (CTRL)): 4.3 ± 0.5 nmol/mL; diabetic rats in the fourth cataract phase ([2]; end of the fifth week, untreated 67%): 30%; eyes with cataracts at stage 0 ([2]; end of the treatments, untreated none): 3 eyes; opacity index ([2]; end of treatment, untreated 5.3): 2.0
